Laboratory results published in patent US20100041903A1, “Ozonized Surfactant” (ERC TECHNOLOGY INC., priority 2006, published 2010).

Key:
[1] = Surface-active property test (contact angle on polyvinyl chloride plate); type: physicochemical; conditions: Surfactant not subjected to ozone treatment; 1 wt % aqueous solution on polyvinyl chloride plate
Description: The surface-active properties of ozonized surfactants were determined in the following manner. 1 wt % of aqueous solutions of surfactants (Tween 80, polyethylene glycol 10 oleyl ether, and polyethylene glycol 20 oleyl ether (manufactured by Wako Pure Chemical Industries, Ltd.)) were prepared, and each of the solutions was dropped on a polyvinyl chloride plate to measure a contact angle (θ) using a contact angle meter CA-VP (manufactured by Kyowa Interface Science Co., Ltd.). The same measurement was carried out for the ozonized surfactants obtained in Examples 1, 2 and 4.

[2] = test system: Saccharomyces cerevisiae; experiment: Minimum inhibitory concentration test; type: cell-based; conditions: 48 H, 28° C., YM liquid medium, 1 × 10^6/mL
Excerpt: (§1) In order to check the antibacterial and antifungal performance of the ozonized surfactant according to the present invention, bacteriostatic and bactericidal effects of the ozonized surfactant against five kinds of microorganisms were examined. The five kinds of target microorganisms were Staphyrococcus aureus as a prokaryotic gram-positive bacterium, Escherichia coli as a prokaryotic gram-negative bacterium, Saccharomyces cerevisiae and Trichophyton mentagrophytes as fungi which are eukaryotic microorganisms, and Cladosporium cladosporioides. One loopful of each strain was inoculated in a medium optimum for the strain, and cultured under culture conditions optimum for the strain to prepare a cell suspension for inoculation. […] 9 mL of each medium shown in Table 1 was dispensed into L-shaped test tubes for a biophotorecorder, and was then sterilized by steam. […] 0.1 mL of the cell suspension for inoculation was inoculated into the graduated dilution series to be tested (the initial number of cells of each microorganism is shown in Table 1). […] In the following tests, they were sterilized in the same manner. [table] […] Another graduated dilution series was prepared between the temporary minimum inhibitory concentration and the concentration of the ozonized surfactant nearest to the temporary minimum inhibitory concentration, at which turbidity occurred. Then, the same operation as described above was again carried out. […] It is to be noted that this MIC test against these five kinds of microorganisms was carried out also using, as a control, the surfactant solution not subjected to ozone treatment.

[3] = test system: Trichophyton mentagrophytes; experiment: Minimum inhibitory concentration test; type: cell-based; conditions: 96 H, 25° C., Sabouraud medium, 1 × 10^5/mL
Excerpt: as §1

[4] = test system: Staphyrococcus aureus; experiment: Minimum inhibitory concentration test; type: cell-based; conditions: 24 H, 37° C., Bouillon liquid medium, 1 × 10^7/mL
Excerpt: as §1

[5] = test system: Cladosporium cladosporioides; experiment: Minimum inhibitory concentration test; type: cell-based; conditions: 96 H, 25° C., Sabouraud medium, 1 × 10^5/mL
Excerpt: as §1

[6] = test system: Escherichia coli; experiment: Minimum inhibitory concentration test; type: cell-based; conditions: 24 H, 30° C., Bouillon liquid medium, 1 × 10^7/mL
Excerpt: as §1

Substance | Contact angle (θ) [1] | minimum inhibitory concentration [2] [% by weight] | minimum inhibitory concentration [3] [% by weight] | minimum inhibitory concentration [4] [% by weight] | minimum inhibitory concentration [5] [% by weight] | minimum inhibitory concentration [6] [% by weight]
Polyethylene glycol 10 oleyl ether [Polyethylene glycol (10) oleyl ether] | 51.9 degree (°) | >1 | >1 | >1 | >1 | >1
polyethylene glycol 20 oleyl ether [Polyethylene glycol (20) oleyl ether] | 59.4 degree (°) | – | – | – | – | –
